According to US9499561B2, “Fused pyrimidine compound, and preparation method, intermediate, composition, and uses thereof” (Shanghai Yingli Science and Technology Co., Ltd., priority 2012, dated 2016):

Assays:
U87-MG = assay: Cell proliferation inhibition assay (MTT), U87-MG; type: cell-based; conditions: 72 hrs
Description: (§1) Cancer cell lines (A549, PC3, or […]) in the logarithmic growth phase were plated at a density of about 3,000 per well in 96-well plates, 90 μL/well, using double wells for each concentration. Control wells containing corresponding concentration of vehicle and without cells were also prepared. After 24 hrs, positive control compound and example compounds were added to make 10 μL/well and final DMSO concentration of 0.5%. The cells were incubated with compounds for 72 hrs in the presence of 10% Invitrogen fetal bovine serum, 37° C., 5% CO2. 5 mg/mL MTT solution was added to make 10 μL/well, and incubated for 4 hours at 37° C. A ddH2O solution (10% SDS, 5% isobutanol, 10 mmol/L HCl) was added to make 100 μL/well and incubated overnight at 37° C.

PI3Kδ = PI3Kδ (Homo sapiens (Human), UniProt O00329); assay: PI3Kδ enzymatic inhibitory activity IC50 assay (Caliper Reader); type: biochemical
Description: (§2) Biological Effect Example 1 PI3Kα and PI3Kδ Enzymatic Inhibitory Activity IC50 Assay • 1. Buffer preparation: 50 mM HEPES, pH 7.5, 3 mM MgCl2, 1 mM EGTA, 100 mM NaCl, 0.03% CHAPS. • 2. Compound was formulated in 100% DMSO in a concentration gradient, deposited to a 384-well plate to make final DMSO concentration of 1%. • 3. PI3Kα and PI3Kδ enzymes were diluted to be the optimum concentration with the following buffer: 50 mM HEPES, pH 7.5, 3 mM MgCl2, 1 mM EGTA, 100 mM NaCl, 0.03% CHAPS, 2 mM DTT. Transferred to a 384-well plate and incubated with the compound for a certain time. • 4. […] The reaction was performed in a 384-well plate for 1 h at room temperature for PI3Kα and 2 hrs at room temperature for PI3Kδ. • 5. Read the conversion rate using Caliper Reader, and calculate the inhibition rate as the average of two tests.

PC3 = assay: Cell proliferation inhibition assay (MTT), PC3; type: cell-based; conditions: 72 hrs
Description: as §1

A549 = assay: Cell proliferation inhibition assay (MTT), A549; type: cell-based; conditions: 72 hrs
Description: as §1

PI3Kα = PI3Kα (Homo sapiens (Human), UniProt P42336); assay: PI3Kα enzymatic inhibitory activity IC50 assay (Caliper Reader); type: biochemical
Description: as §2

[1] = Body weight of nude mice in the U87MG xenograft study, preliminary evaluation of compound toxicity; type: in vivo; conditions: for Body weight D 0: day 0; for Body weight D 20: day 20
Description: (§3) Groups of nude mice were implanted subcutaneously in the right hind back with 4×10^6 U87MG cells. Start dosing when mean tumor volume reached approximately 150 (100-200) mm^3. Grouping method: before dosing, animals were weighted, tumor sizes were measured, and randomized according to the tumor size (randomized block design), 8 mice per group. A solvent (0.5% CMC-Na+0.2% Tween-80) was dosed once daily by oral gavage for solvent control group, and pre-determined dose of test compound was dosed once daily by oral gavage for a dosing group, for 20 consecutive days.
(§4) Tumor diameters were measured twice a week with a vernier caliper. Tumor volume was calculated with formula: V=0.5a×b^2, a and b represent longer and shorter diameter of tumor. […] Meanwhile, the weight of nude mice in each group was weighed twice weekly for a preliminary evaluation of compound toxicity.

[2] = tested on: malignant glioma cell U87MG xenograft; assay: Growth inhibition of malignant glioma cell U87MG xenograft in nude mice; type: in vivo; conditions: for TGI: 20 days; for Tumor size D 0: day 0; for Tumor size D 20: day 20
Description: as §3, §4

[3] = 25 mg/kg once daily oral gavage
[4] = 50 mg/kg once daily oral gavage
[5] = 20 mg/kg once daily oral gavage
[6] = 150 mg/kg once daily oral gavage

PI3Kδ, sequence (O00329 whole entry): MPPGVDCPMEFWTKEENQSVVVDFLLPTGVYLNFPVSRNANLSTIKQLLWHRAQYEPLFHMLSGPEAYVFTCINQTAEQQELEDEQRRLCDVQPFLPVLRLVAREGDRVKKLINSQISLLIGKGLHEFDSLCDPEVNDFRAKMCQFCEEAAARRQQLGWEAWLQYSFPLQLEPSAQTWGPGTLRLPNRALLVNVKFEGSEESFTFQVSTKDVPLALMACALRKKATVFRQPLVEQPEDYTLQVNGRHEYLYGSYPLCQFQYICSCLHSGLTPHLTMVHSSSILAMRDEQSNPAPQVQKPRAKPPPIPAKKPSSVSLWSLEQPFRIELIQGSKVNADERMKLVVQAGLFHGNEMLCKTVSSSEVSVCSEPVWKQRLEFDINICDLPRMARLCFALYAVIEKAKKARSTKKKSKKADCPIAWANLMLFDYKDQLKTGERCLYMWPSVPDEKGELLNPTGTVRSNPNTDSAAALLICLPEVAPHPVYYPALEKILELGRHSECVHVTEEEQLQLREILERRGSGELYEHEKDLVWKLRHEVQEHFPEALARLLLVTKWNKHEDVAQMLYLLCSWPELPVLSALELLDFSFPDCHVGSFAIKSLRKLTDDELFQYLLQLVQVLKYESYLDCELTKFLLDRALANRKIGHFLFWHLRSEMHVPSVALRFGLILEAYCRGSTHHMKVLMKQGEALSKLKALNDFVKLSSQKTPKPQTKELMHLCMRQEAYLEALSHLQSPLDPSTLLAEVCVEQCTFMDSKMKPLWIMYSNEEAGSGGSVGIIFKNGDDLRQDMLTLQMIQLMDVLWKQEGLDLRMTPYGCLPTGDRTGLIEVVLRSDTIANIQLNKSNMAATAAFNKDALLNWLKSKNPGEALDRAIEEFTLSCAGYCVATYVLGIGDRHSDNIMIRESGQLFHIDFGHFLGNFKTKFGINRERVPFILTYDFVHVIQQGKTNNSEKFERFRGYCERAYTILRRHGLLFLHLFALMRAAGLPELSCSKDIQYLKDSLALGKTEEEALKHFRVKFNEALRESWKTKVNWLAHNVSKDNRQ
PI3Kδ, sequence (P27986 whole entry partner): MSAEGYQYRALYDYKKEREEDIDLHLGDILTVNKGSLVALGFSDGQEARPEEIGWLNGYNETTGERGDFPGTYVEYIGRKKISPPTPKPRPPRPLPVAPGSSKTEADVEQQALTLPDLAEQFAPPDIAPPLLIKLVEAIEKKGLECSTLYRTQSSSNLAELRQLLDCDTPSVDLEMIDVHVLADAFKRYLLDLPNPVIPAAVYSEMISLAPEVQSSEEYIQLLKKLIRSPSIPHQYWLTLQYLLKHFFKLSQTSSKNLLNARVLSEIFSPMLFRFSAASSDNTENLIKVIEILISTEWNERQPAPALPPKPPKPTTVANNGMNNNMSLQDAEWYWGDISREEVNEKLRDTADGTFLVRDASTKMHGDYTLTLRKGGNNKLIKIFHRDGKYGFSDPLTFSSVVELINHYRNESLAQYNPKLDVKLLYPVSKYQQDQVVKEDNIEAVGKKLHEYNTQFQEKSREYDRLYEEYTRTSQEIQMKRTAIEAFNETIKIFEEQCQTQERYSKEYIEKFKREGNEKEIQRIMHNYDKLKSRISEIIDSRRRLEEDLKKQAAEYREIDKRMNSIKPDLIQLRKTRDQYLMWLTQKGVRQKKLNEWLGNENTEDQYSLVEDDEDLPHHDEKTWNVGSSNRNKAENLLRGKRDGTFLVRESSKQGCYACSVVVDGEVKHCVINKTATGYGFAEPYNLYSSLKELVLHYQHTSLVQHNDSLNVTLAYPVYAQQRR
PI3Kα, sequence (P42336 whole entry): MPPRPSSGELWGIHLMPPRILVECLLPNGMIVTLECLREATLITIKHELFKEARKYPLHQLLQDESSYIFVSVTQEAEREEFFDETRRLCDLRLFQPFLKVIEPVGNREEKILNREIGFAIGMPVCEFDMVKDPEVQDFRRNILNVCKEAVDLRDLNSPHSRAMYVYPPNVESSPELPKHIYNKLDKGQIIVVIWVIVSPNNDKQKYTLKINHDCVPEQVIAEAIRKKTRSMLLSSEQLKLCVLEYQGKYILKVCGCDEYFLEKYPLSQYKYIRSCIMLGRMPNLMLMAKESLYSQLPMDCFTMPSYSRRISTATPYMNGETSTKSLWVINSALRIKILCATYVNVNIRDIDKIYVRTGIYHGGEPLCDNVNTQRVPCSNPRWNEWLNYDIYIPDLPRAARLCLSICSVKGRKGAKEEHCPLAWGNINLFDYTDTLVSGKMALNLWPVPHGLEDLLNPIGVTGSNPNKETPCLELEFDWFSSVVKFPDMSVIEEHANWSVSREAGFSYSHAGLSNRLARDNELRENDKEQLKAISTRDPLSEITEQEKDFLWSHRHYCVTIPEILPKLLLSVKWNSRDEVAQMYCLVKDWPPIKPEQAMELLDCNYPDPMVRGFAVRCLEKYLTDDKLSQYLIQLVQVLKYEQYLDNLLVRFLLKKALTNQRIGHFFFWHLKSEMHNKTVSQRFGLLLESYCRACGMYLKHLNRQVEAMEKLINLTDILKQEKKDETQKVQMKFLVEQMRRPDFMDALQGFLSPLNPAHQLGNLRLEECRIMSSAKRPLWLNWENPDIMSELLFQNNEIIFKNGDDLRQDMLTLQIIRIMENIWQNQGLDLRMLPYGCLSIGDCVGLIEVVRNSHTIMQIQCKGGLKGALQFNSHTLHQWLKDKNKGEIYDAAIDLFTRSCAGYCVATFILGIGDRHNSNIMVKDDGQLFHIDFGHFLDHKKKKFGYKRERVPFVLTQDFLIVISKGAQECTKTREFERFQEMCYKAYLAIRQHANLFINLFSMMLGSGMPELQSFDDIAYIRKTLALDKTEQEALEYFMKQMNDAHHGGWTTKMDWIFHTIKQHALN
PI3Kα, sequence (P27986 whole entry partner): as the sequence (P27986 whole entry partner) above

Row | SMILES | IC50 (U87-MG) [nM] | IC50 (PI3Kδ) [nM] | IC50 (PC3) [nM] | IC50 (A549) [nM] | IC50 (PI3Kα) [nM] | further results
1 | Cc1sc2c(-c3cnc(N)nc3)nc(N3CCOCC3)nc2c1CN1CCN(C(=O)[C@@H](C)O)CC1 [Compound 25] | 11300 | 13 | 3060 | 6680 | 56 | –
2 | CS(=O)(=O)N1CCN(Cc2cc3nc(-c4cccc5[nH]ncc45)nc(N4CCOCC4)c3s2)CC1 [GDC-0941, reference compound] | – | – | – | – | – | Body weight D 0 [1, 3]: 22.24 g; Body weight D 20 [1, 3]: 23.64 g; Body weight D 0 [1, 4]: 22.47 g; Body weight D 20 [1, 4]: 23.57 g; TGI [2, 3]: 57.65%; Tumor size D 0 [2, 3]: 149.86 mm^3; Tumor size D 20 [2, 3]: 456.64 mm^3; TGI [2, 4]: 66.07%; Tumor size D 0 [2, 4]: 150.72 mm^3; Tumor size D 20 [2, 4]: 396.57 mm^3
3 | CC(C)(O)C1CCN(Cc2csc3c(-c4cnc(N)nc4)nc(N4CCOCC4)nc23)CC1 [Compound 17] | 7810 | 65.4 | 5390 | 4820 | 245 | –
4 | Cc1nc(N)ncc1-c1nc(N2CCOCC2)nc2c(CN3CCN(S(C)(=O)=O)CC3)csc12 [Compound 11] | 12200 | 28.3 | 10100 | 6440 | 13.1 | –
5 | CS(=O)(=O)N1CCN(Cc2csc3c(-c4cncnc4)nc(N4CCOCC4)nc23)CC1 [Compound 15] | – | 200 | – | – | 104 | –
6 | Cc1sc2c(-c3cnc(N)nc3)nc(N3CCOCC3)nc2c1CN1CCN(C(=O)[C@H](C)O)CC1 [Compound 24] | 9360 | 8.3 | 2070 | 2740 | 18.9 | –
7 | C[C@H](O)C(=O)N1CCN(Cc2csc3c(-c4cnc(N)nc4)nc(N4CCOCC4)nc23)CC1 [Compound 18] | 8870 | 12.6 | 2310 | 3640 | 12 | –
8 | CS(=O)(=O)N1CCN(Cc2csc3c(-c4cccc(O)c4)nc(N4CCOCC4)nc23)CC1 [Compound 13] | – | 327 | – | – | 265 | –
9 | CS(=O)(=O)N1CCN(Cc2csc3c(-c4ccc(N)nc4)nc(N4CCOCC4)nc23)CC1 [Compound 12] | – | 190 | – | – | 232 | –
10 | Cc1sc2c(-c3cnc(N)nc3)nc(N3CCOCC3)nc2c1CN1CCN(C(=O)CO)CC1 [Compound 29] | 3740 | 7 | 1490 | 2700 | 18 | Body weight D 0 [1, 5]: 22.40 g; Body weight D 20 [1, 5]: 22.69 g; Body weight D 0 [1, 4]: 22.21 g; Body weight D 20 [1, 4]: 21.99 g; Body weight D 0 [1, 6]: 22.76 g; Body weight D 20 [1, 6]: 20.62 g; tolerability / toxic side effects (in words) ([1]; high dose (150 mg/kg)): the tested mice can still torelate even the high dose; TGI [2, 5]: 88.38%; Tumor size D 0 [2, 5]: 148.62 mm^3; Tumor size D 20 [2, 5]: 232.84 mm^3; TGI [2, 4]: 102.88%; Tumor size D 0 [2, 4]: 151.36 mm^3; Tumor size D 20 [2, 4]: 130.48 mm^3; TGI [2, 6]: 113.86%; Tumor size D 0 [2, 6]: 148.16 mm^3; Tumor size D 20 [2, 6]: 47.70 mm^3; ability to inhibit tumor growth compared with GDC-0941 (in words) ([2]; U87MG xenograft in nude mice): significantly better than GDC-0941; in vivo anti-tumor activity (in words) ([2]; U87MG xenograft in nude mice): strong in vivo anti-tumor activity
11 | C[C@@H](O)C(=O)N1CCN(Cc2csc3c(-c4cnc(N)nc4)nc(N4CCOCC4)nc23)CC1 [Compound 19] | 8080 | 31.9 | 2610 | 3990 | 51.4 | –
12 | CS(=O)(=O)N1CCN(Cc2csc3c(-c4cccc5[nH]ncc45)nc(N4CCOCC4)nc23)CC1 [Compound 6] | 7410 | 62 | 6110 | 4640 | 57 | –

Continued, in another order:

Row | IC50 (U87-MG) [nM] | IC50 (PI3Kδ) [nM] | IC50 (PC3) [nM] | IC50 (A549) [nM] | IC50 (PI3Kα) [nM] | SMILES | further results
13 | 4460 | 38 | 1940 | 2600 | 24 | Nc1ncc(-c2nc(N3CCOCC3)nc3c(CN4CCN(C(=O)CO)CC4)csc23)cn1 [Compound 28] | –
14 | – | 4.7 | – | – | 35 | Cc1nc(N)ncc1-c1nc(N2CCOCC2)nc2c(CN3CCN(C(=O)[C@H](C)O)CC3)csc12 [Compound 21] | –
15 | – | 52 | – | – | 46.2 | CC(C)(O)C(=O)N1CCN(Cc2csc3c(-c4cnc(N)nc4)nc(N4CCOCC4)nc23)CC1 [Compound 20] | –
16 | – | 60.4 | – | – | 262 | Cc1sc2c(-c3cccc4[nH]ncc34)nc(N3CCOCC3)nc2c1CN1CCN(S(C)(=O)=O)CC1 [Compound 30] | –
17 | – | 18 | – | – | 76 | C[C@H](O)C(=O)N1CCN(Cc2csc3c(-c4cccc5[nH]ncc45)nc(N4CCOCC4)nc23)CC1 [Compound 27] | –
18 | – | 56 | – | – | 157 | Cc1sc2c(-c3cnc(N)nc3)nc(N3CCOCC3)nc2c1CN1CCN(CCO)CC1 [Compound 36] | –
19 | – | 11 | – | – | 77 | Cc1nc(N)ncc1-c1nc(N2CCOCC2)nc2c(CN3CCN(C(=O)[C@H](C)O)CC3)csc12 [Compound 22] | –
20 | – | 16 | – | – | 202 | C[C@@H](O)C(=O)N1CCN(Cc2csc3c(-c4cccc5[nH]ncc45)nc(N4CCOCC4)nc23)CC1 [Compound 23] | –
21 | – | 290 | – | – | 26 | Nc1ncc(-c2nc(N3CCOCC3)nc3ccoc23)cn1 [Compound 31] | –
22 | – | – | – | – | 32 | CN(Cc1csc2c(-c3cnc(N)nc3)nc(N3CCOCC3)nc12)C(=O)CO [Compound 32] | –
23 | 19700 | 41 | 3280 | 9330 | 141 | O=C(CO)N1CCN(Cc2csc3c(-c4cccc5[nH]ncc45)nc(N4CCOCC4)nc23)CC1 [Compound 26] | –
